Assay results: patent publication EP2407164A1, “Copper II complexes of phenanthroline and their use in cancer treatment” (Dublin Institute of Technology Intellectual Property Ltd, priority 2010, dated 2012)

How the values were obtained:
[1] = system: MCF-7; assay: MTT cytotoxicity assay, complexes 1-6; assay type: cell-based, Human; settings: MCF-7 breast cancer, 24 hr exposure, mean of three independent experiments +/- standard error
Procedure: (§1) Human colon cancer cell line, HT29 (passage 17 to 30, ATCC, USA), was grown in McCoys's 5a medium supplemented with 2mM L-glutamine and fetal bovine serum (FBS) 10% and containing 100U/ ml penicillin and 100µg / ml streptomycin at 37°C in a humidified atmosphere with 5% CO2 Human Breast Cancer cell line, MCF-7 (passage 16 to 26, ATCC, USA) was grown in Eagle's minimum essential medium containing 2mM L-glutamine, 100U/ ml penicillin,100µg/ ml streptomycin, FBS (10%), 1mM sodium pyruvate and 1% (v/v) non essential amino acids at 37°C in a humidified atmosphere with 5% CO2 Human prostate cancer cell line, DU145 (passage 12 to 29, ATCC, USA) was grown in Eagle's minimum essential medium containing 2mM L-glutamine, 100U/ ml penicillin, 100µg/ ml streptomycin, FBS (10%), 1mM sodium pyruvate and 1% (v/v) non essential amino acids at 37°C in a humidified atmosphere with 5% CO2. All drugs were tested by MTT assay following 24-hour exposure of cells to each compound. Each value represents the mean IC50 of three independent experiments +/- standard error.
(§2) MTT Assay. This method is based on the reduction of the tetrazolium salt, methylthiazolyldiphenyl-tetrazolium bromide (MTT) into a crystalline blue formazan product by the cellular oxidoreductases of viable cells. The resultant formazan crystal formation is proportional to the number of viable cells. Cells were seeded at 4x 10^5 cells/ml in 96-well plates and incubated at 37°C in 5% CO2 for 24 hours. Cells were treated with a four log range of concentration of the test compounds in triplicate from 0.1 to 500 µM or with a solvent control (0.5% DMSO) in complete medium. Following 24 h incubation, cells were incubated with 20 µl of MTT (5 mg/ml) in 0.1 M PBS, pH 7.4 at 37 °C in a humid atmosphere with 5% CO2 for 4 h. Media was then gently aspirated from test cultures and 100 µL of dimethyl sulphoxide (DMSO) was added to all wells. The plates were then shaken for 2 min and the absorbance was read at 550 nm in a Varioscan plate reader. The IC50 was defined as the concentration of test compound required to reduce the absorbance of the MTT-formazan crystals by 50%, indicating 50% cell deactivation.

[2] = system: HT29; assay: MTT cytotoxicity assay, complexes 1-6; assay type: cell-based, Human; settings: HT29 colon cancer, 24 hr exposure, mean of three independent experiments +/- standard error
Procedure: as §1, §2

[3] = system: DU145; assay: MTT cytotoxicity assay, complexes 1-6; assay type: cell-based, Human; settings: DU145 prostate cancer, 24 hr exposure, mean of three independent experiments +/- standard error
Procedure: as §1, §2

[4] = system: pUC18; assay: Nuclease activity: relaxation of supercoiled plasmid DNA, agarose gel; assay type: biochemical; settings: 37 °C; for concentration at which nuclease activity is seen: supercoiled pUC18, 5 hours, no added H2O2, oxidant or reductant
Procedure: Nuclease Activity. Reactions were carried out in a total volume of 20 µL in 0.1 M cacodylate buffer (pH = 6.0) with either 0.5, 2.5, 10 µL of 40 µM complex or 2, 5, 10 µL of 200 µM of complex, which were initially prepared in DMF, then diluted in cacodylate buffer (in which they dissolved), with 1 µL of 0.25 µg/µL pUC18 in cacodylate buffer. The resulting mixtures contained 1, 5, 10, 20, 50 and 100 µM of complex and […] of pUC18. Samples were incubated for 5 hr at 37°C. Quench buffer (3 µL; 0.25% bromophenolblue, 0.25% xylene cyanole and 30% glycerol) was then added and samples were loaded onto agarose gel (0.8%) containing 1.5 µL/100 mL of solution of GelRed™ (10,000X). Electrophoresis was completed at 80 V for 2 hr in 1XTAE buffer.

[5] = system: four Human-derived tumor lines; assay: MTT assay, summary statements over the four tumor lines; assay type: cell-based; settings: MCF-7, DU145, SK-OV-3, HT29, 24 hours
Procedure: as §1
MTT Assay. This method is based on the reduction of the tetrazolium salt, methylthiazolyldiphenyl-tetrazolium bromide (MTT) into a crystalline blue formazan product by the cellular oxidoreductases of viable cells. […] The plates were then shaken for 2 min and the absorbance was read at 550 nm in a Varioscan plate reader. […]

[6] = system: poly[d(A-T)]2; assay: DNA-ethidium fluorescence quenching; assay type: binding; settings: Q = equivalent concentration required to reduce fluorescence by 50%; 2.0 µM EtBr, 20 µM DNAp, 2 mM NaOAc buffer, 9.3 mM NaCl, pH 5.0
Procedure: (§3) DNA-Ethidium Fluorescence Quenching. Working solutions containing 20 µM poly[d(AT)]2 (ε260 = 13,100 M(bp)^-1 cm^-1), poly[d(G-C)]2 (ε260 = 16,800 M(bp)^-1 cm^-1) and CT-DNAp (ε260 = 12,824 M(bp)^-1 cm^-1) along with 2.0 µM Et in NaOAc buffer (2 mM NaOAc, 9.3 mM NaCl, 0.1 mM Na2EDTA, pH = 5.0) were prepared. Subsequent experimental steps are identical to the displacement experiment with the exception that a fluorescence reading of 200 arbitrary units with measurements being recorded over a 20-s interval was used. From a plot of the fluorescence vs added drug concentration, the Q values is given by the concentration required to effect 50% removal of the initial fluorescence.

[7] = system: poly[d(G-C)]2; assay: DNA-ethidium fluorescence quenching; assay type: binding; settings: Q = equivalent concentration required to reduce fluorescence by 50%; 2.0 µM EtBr, 20 µM DNAp, 2 mM NaOAc buffer, 9.3 mM NaCl, pH 5.0
Procedure: as §3

[8] = system: SK-OV-3; assay: MTT cytotoxicity assay, complexes 1-6; assay type: cell-based, Human; settings: SK-OV-3 ovarian cancer, 24 hr exposure, mean of three independent experiments +/- standard error
Procedure: as §2
Cu(II) bis-phen complexes 4-6 display rapid, low micomolar toxicities against all tumor lines. […] It should be noted that 6 is dinuclear and so contains two active copper units, which may explain this heightened potency.

[9] = Solubility in organic solvents; settings: DMSO/DMF
[10] = system: CT-DNA; assay: Competitive ethidium bromide displacement; assay type: binding, calf; settings: for Kapp (apparent binding constant): Kapp = Ke x 1.26/C50 where Ke = 9.5 x 10^6 M(bp)^-1; for Kapp (apparent binding constant) / IC50: 1.2 µM EtBr, 1 µM CT-DNAp, pH 7.0; for IC50: final volume 2 mL, 10 mM TES, 0.1 mM Na2EDTA, read-out: C50 = concentration required to reduce fluorescence by 50%
Procedure: Competitive Ethidium Displacement. […] Complexes 4-6, actinomycin D, pentamidine isethionate were prepared at 2.0 mM in DMSO. Two millilitres of DNA-Et solution were placed in a 10-mm quartz cuvet (3 mL) and positioned in a temperature controlled (20°C) spectrofluorometer (Perkin Elmer LS55B Luminescence Spectrometer). Excitation and emission wavelengths were set to 546 and 595 nm, respectively. After thermal equilibrium was established the emission and excitation slits were modified to give a fluorescence reading of 50 arbitrary units with measurements being recorded over a 20-s interval. An aliquot of complex or drug solution was taken (0.5 - 10 µL), was added to the cuvette and after equilibration the fluorescence reading was recorded. Repeated aliquots were added until the fluorescence was 20-40% of the initial control. Triplicate titrations were preformed and the apparent binding constants were calculated using Kapp = Ke x 1.26/C50 where Ke = 9.5 x 10^6 M(bp)^-1.

[11] = system: HT29; assay: MTT cytotoxicity assay, complex 7; assay type: cell-based, Human; settings: HT29 colon cancer line, 24 hr
Procedure: (§4) For cytotoxicity evaluation HT29, SW480 and SW620 cell lines were employed; all the cell lines were grown in RPMI 1640 media (Fischer). All media were supplemented with 10% foetal bovine serum (FBS) and 45 IU/ml penicillin and 45 µg/ml streptomycin and cells were maintained at 37 °C in a 5% CO2 humidified incubator.
(§5) For sterilisation samples were filtered with a 0.2 micron cellulose acetate filter. For cytotoxicological evaluation all samples were prepared fresh on the day of exposure. A stock concentration of test compound was prepared in the exposure media (10% DMEM F-12) necessary for the cell line under test. This sample was vortexed to ensure a uniform dispersion of the compound under test.
For cytotoxicity assays cells were seeded in 96-well microplates (Nunc, Denmark) at a density of 1 x 10^5 cells/ml for the 24 hr test, 5 x10^4 cells/ml for the 48 hr test and 3 x 10^4 cells/ml for the 96 hr test. […] After 24 h of cell attachment, plates were washed with 100 µl/well phosphate buffered saline (PBS) and the cells were treated with increasing concentrations of each compound for 24 h. […] The plate was shaken at 240 rpm for 10 min and the absorbance was measured at 570 nm.
At least three independent experiments were conducted in triplicate for each cell line and toxicity endpoint. […] Differences between samples and the control were evaluated using the statistical analysis package SPSS 14.0. […]

[12] = system: SW620; assay: MTT cytotoxicity assay, complex 7; assay type: cell-based; settings: SW620 (Dukes' C) colon cancer line, 24 hr
Procedure: as §4, §5
(§6) For cytotoxicity assays cells were seeded in 96-well microplates (Nunc, Denmark) at a density of 1 x 10^5 cells/ml for the 24 hr test, 5 x10^4 cells/ml for the 48 hr test and 3 x 10^4 cells/ml for the 96 hr test. […] After 24 h of cell attachment, plates were washed with 100 µl/well phosphate buffered saline (PBS) and the cells were treated with increasing concentrations of each compound for 24 h. Six replicate wells were used for each control and test concentration per microplate. Following the desired time of compound exposure, control medium or test exposures were removed, the cells were rinsed with PBS and 100 µl of fresh medium (without FBS or supplements) was added to each well. 10 µl of MTT (5 mg/ml) prepared in PBS was then added to each well and the plates were incubated for 3 h at 37°C in a 5% CO2 humidified incubator. After this incubation period the medium was discarded, the cells were washed with 100 µl of PBS and 100 µl of DMSO was added to each well to extract the dye. The plate was shaken at 240 rpm for 10 min and the absorbance was measured at 570 nm.
(§7) At least three independent experiments were conducted in triplicate for each cell line and toxicity endpoint. […] Control values were set as 100%. Differences between samples and the control were evaluated using the statistical analysis package SPSS 14.0. Statistically significant differences were set at p≤0.05.

[13] = system: SW480; assay: MTT cytotoxicity assay, complex 7; assay type: cell-based; settings: SW480 (Dukes' B) colon cancer line, 24 hr
Procedure: as §4, §5, §6, §7

[14] = system: CT-DNA; assay: DNA-ethidium fluorescence quenching; assay type: binding, calf; settings: Q = equivalent concentration required to reduce fluorescence by 50%; 2.0 µM EtBr, 20 µM DNAp, 2 mM NaOAc buffer, 9.3 mM NaCl, pH 5.0
Procedure: as §3

| Substance | IC50 [1] | IC50 [2] | IC50 [3] | concentration at which nuclease activity is seen [4] | cytotoxicity against all tumor lines, in words [5] | IC50 [6] | IC50 [7] | IC50 [8] | Solubility [9] | Kapp (apparent binding constant) [10] | IC50 [10] | 'self-activating' nuclease activity (relaxation of SC pUC18), in words ([4]; 1-100 µM complex, 5 hours, no added H2O2 or reductant) | Activity LD50 [11] | Activity LD50 [12] | Activity LD50 [13] | IC50 [14] | DNA binding ability, in words ([10]; competitive EtBr displacement with CT-DNA) |
| --- | --- | --- | --- | --- | --- | --- | --- | --- | --- | --- | --- | --- | --- | --- | --- | --- | --- |
| [{Cu{(phen)2}2(terph)](terph)10H2O.3EtOH [Complex 6] | 7.9 ± 0.4 µM | 5.4 ± 0.3 µM | 5.7 ± 0.2 µM | 1 to 5 µM | best broad-spectrum activity | 8.55 µM | 10.3 µM | 6.7 ± 0.4 µM | forms only suspensions in DMSO/DMF | 3.04x10^5 M(bp)^-1 | 39.4 µM | – | – | – | – | – | – |
| [Cu2(oda)(phen)4](ClO4)2.2.67H2O.C2H5OH [Complex 7] | – | – | – | ≥ 10 µM | – | – | – | – | – | 2.55x10^5 M(bp)^-1 | 46.9 µM | highly efficient in the cleavage of plasmid DNA | 9.61 µM | 31 µM | 11.3 µM | 22.6 µM | efficient ability to bind with calf thymus DNA |
